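Following 48 hours of exposure in 96-well plates, responses at five concentrations were used to interpolate endpoints linearly. GI50 is the concentration that inhibits growth by half. TGI denotes the concentration required for complete inhibition of growth.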
How the values were obtained:
Assay in all cases: DTP human tumour cell line panel, 48 h
HOP-92 NSCLC = system: HOP-92 NSCLC
SF-295 CNS = system: SF-295 CNS
CAKI-1 renal = system: CAKI-1 renal
SK-MEL-2 melanoma = system: SK-MEL-2 melanoma
NCI-H226 lung = system: NCI-H226 lung
UO-31 renal = system: UO-31 renal
MALME-3M melanoma = system: MALME-3M melanoma
ACHN renal = system: ACHN renal
K-562 leukemia = system: K-562 leukemia
SF-539 CNS = system: SF-539 CNS

Row | SMILES | GI50 (HOP-92 NSCLC) [µM] | TGI (HOP-92 NSCLC) [µM] | GI50 (SF-295 CNS) [µM] | TGI (SF-295 CNS) [µM] | GI50 (CAKI-1 renal) [µM] | TGI (CAKI-1 renal) [µM] | GI50 (SK-MEL-2 melanoma) [µM] | TGI (SK-MEL-2 melanoma) [µM] | GI50 (NCI-H226 lung) [µM] | TGI (NCI-H226 lung) [µM] | GI50 (UO-31 renal) [µM] | TGI (UO-31 renal) [µM] | GI50 (MALME-3M melanoma) [µM] | TGI (MALME-3M melanoma) [µM] | GI50 (ACHN renal) [µM] | TGI (ACHN renal) [µM] | GI50 (K-562 leukemia) [µM] | TGI (K-562 leukemia) [µM] | GI50 (SF-539 CNS) [µM] | TGI (SF-539 CNS) [µM]
1 | OCC1OC(n2cnc3c(NCc4ccccc4O)ncnc32)C(O)C1O (stereo not drawn) | 0.709 | 7.51 | 6.48 | > 56.7 | 0.349 | 9.43 | 0.328 | 1.83 | 8.65 | 23.2 | 0.717 | 13.8 | 2.99 | > 75.5 | 0.327 | > 44.4 | 0.634 | > 100 | 0.403 | 2.49
2 | CC(C)(C)OC(=O)N1Cc2cc3ccccc3nc2C1CO (stereo not drawn) | 57.8 | > 100 | > 100 | > 100 | > 100 | > 100 | > 100 | > 100 | > 100 | > 100 | > 100 | > 100 | > 100 | > 100 | > 100 | > 100 | > 100 | > 100 | > 100 | > 100
3 | CCOC(=O)CCSC1=CC(=O)c2nc3ccccc3c3ccnc1c23 | 25.8 | 62.6 | 17.1 | 44.3 | 16.3 | 31.9 | 26.8 | 72.8 | 21.8 | 73.8 | 16.3 | 34.9 | 17.5 | 35.4 | 18.6 | 42.5 | 26.9 | > 100 | 18.2 | 35.2
4 | NCCCNc1nc2ccccc2c2c(=O)c3cc(F)cc(Cl)c3sc12 | 1.87 | 11.8 | 1.75 | 3.2 | 1.58 | 2.95 | 8.86 | 24 | 6.37 | 23.7 | 1.47 | 2.84 | 1.68 | 3.32 | 1.7 | 3.07 | 1.78 | 4.1 | 1.83 | 3.27
5 | NC(=O)c1ncn2c(=O)n(CCCl)nnc12 | – | 408 | > 68 | 239 | 91.4 | 548 | – | 511 | – | 425 | – | 521 | – | 346 | > 71.2 | 385 | – | 642 | – | 164
6 | OCC1OC(n2cnc3c(NCc4ccco4)ncnc32)C(O)C1O (stereo not drawn) | 0.442 | 5.1 | 1.21 | 8.3 | 0.369 | 4.33 | 5.43 | 31.6 | 12 | > 71.2 | 0.567 | 53.7 | 5.91 | 48.1 | 0.542 | > 100 | 4.47 | > 100 | 3.07 | 13.6
7 | O=C1CCc2ccc(O)c(c2)Oc2ccc(cc2)[C@@H]2O[C@@H]2CO1 | – | 88.2 | – | > 100 | – | > 100 | – | > 100 | – | > 100 | – | > 100 | – | 62.1 | – | > 100 | – | > 100 | – | > 100
8 | C=C1C(=O)O[C@H]2[C@H]1CC/C(COC(=O)/C=C\C(=O)NCc1ccc(Cn3c(=O)sn(-c4ccc(Cl)cc4)c3=O)cc1)=C\CC[C@@]1(C)O[C@@H]21 | 0.569 | 1.35 | 3.11 | 8.8 | 0.328 | 1.03 | 0.904 | 1.89 | 1.24 | 4.28 | 0.515 | 1.1 | 0.852 | 1.63 | 0.404 | 1.03 | 0.409 | 50 | 0.748 | 1.43
9 | CN(C)C/C=C/C(=O)Nc1cc2c(Nc3cccc(Cl)c3F)ncnc2cc1OCCOC(F)F | 0.205 | 2.05 | 2.82 | 15.6 | < 0.01 | 1.65 | 1.94 | 6.27 | 1.68 | 7.28 | < 0.0187 | 6.14 | 1.64 | 6.47 | < 0.01 | 10.7 | 0.939 | 11.6 | 1.5 | 5.59
10 | CSc1cc(C(C)(C)C)ccc1C(O)c1ccc(C(C)(C)C)cc1SC | – | 28.9 | – | 22.6 | – | 24.9 | – | 34.1 | – | 27 | – | 18.6 | – | 29.9 | – | 23.6 | – | 30.5 | – | 32.3
11 | NS(=O)(=O)c1cc(C(=O)O)c(Cl)c([N+](=O)[O-])c1Cl | – | > 100 | – | > 100 | – | > 100 | – | > 100 | – | > 100 | – | > 100 | – | > 100 | – | > 100 | – | > 100 | – | > 100
12 | Nc1nc(N)c(-c2ccc(Cl)c(Cl)c2)c(CP(Cl)(Cl)(Cl)Br)n1 | 12.6 | 54.3 | 6.7 | > 100 | 14.7 | > 100 | 17.9 | 48.7 | 99.7 | > 100 | 17.5 | > 100 | 18.4 | 72.1 | 6.63 | > 100 | 2.79 | > 100 | 12.9 | > 100
13 | O=C(CC1Sc2ccccc2NC1=O)NNc1ccc(F)cc1 (stereo not drawn) | > 100 | > 100 | 12.7 | > 100 | 42.5 | > 100 | 72.9 | > 100 | 41.3 | > 100 | 7.47 | > 100 | > 100 | > 100 | 7.07 | > 100 | 4.67 | > 100 | 16.3 | 61.8
14 | Oc1ccc(/C=N/NC(=S)Nc2cccnc2)nc1 | – | 59.6 | – | > 75.6 | – | > 100 | – | > 100 | – | > 100 | – | > 26.9 | – | 9.12 | – | 32.3 | – | > 23.1 | – | 19.6
15 | C[C@@H](Oc1cc(-c2cnn(C3CCNCC3)c2)cnc1N)c1c(Cl)cc(F)cc1Cl | 0.73 | 3.6 | 0.505 | 7.23 | 3.17 | 12.6 | 1.95 | 5.41 | 2.25 | 9.87 | 3.16 | 13.2 | 1.27 | 2.94 | 2.61 | 12 | 0.229 | 3.88 | 1.67 | 3.3
16 | CCc1ccccc1NC(=O)C(=O)C(C#N)c1c(Cl)cccc1Cl (stereo not drawn) | – | > 100 | – | > 100 | – | > 100 | – | > 100 | – | > 100 | – | > 100 | – | > 100 | – | > 100 | – | > 100 | – | > 100
17 | CCN(CC)CCCNc1cc(OC)c(OC)c2cccnc12 | 28.4 | 62.8 | 7.74 | 33.1 | 2.15 | 29.7 | 14.5 | 42.8 | 15.2 | 37.7 | 14.1 | > 100 | 12.8 | 31.1 | 2.61 | 46.3 | 5.22 | > 100 | 8.01 | 23

Source: PubChem BioAssay (NCI)
